# US20220267310A1, “QUINAZOLINE AND CINNOLINE DERIVATIVES AS DNA-PK INHIBITOR” (MEDSHINE DISCOVERY INC., priority 2019, published 2022)
# Assays:
# [1] = tested on: human head and neck cancer FaDu cell subcutaneous xenograft tumor; experiment: FaDu subcutaneous xenograft, mono and combination with radiotherapy; format: in vivo; conditions: for Tumor volume (mm^3), 3 days after administration: day 3; for Tumor volume (mm^3), 7 days after administration: day 7; for Tumor volume (mm^3), 10 days after administration: day 10; for Tumor volume (mm^3), 14 days after administration: day 14; for Tumor volume (mm^3), 17 days after administration: day 17; for Tumor volume (mm^3), 23 days after administration: day 23; for RTV (21th day) / T/C (%) (21th day) / TGI (%) (21th day) / Tumor volume (mm^3) (0th day) / Tumor volume (mm^3) (21th day): 50 mg/kg, PO
# Protocol: Experiment purpose: The antitumor activity of the tested compound was evaluated in a nude mouse model of human head and neck cancer FaDu cell subcutaneous xenograft tumor
# Experimental animals: Female BALB/c nude mice, 6-8 weeks old, weighing 17-23 grams; supplier: B&K Universal Group Limited
# Human head and neck cancer FaDu cell (ATCC, Manassas. Virginiaite, item number: HTB-43) was cultured in vitro in a culture condition of EMEM medium with 10% fetal bovine serum, 100 U/mL penicillin and 100 μg/mL streptomycin, incubated at 37° C. and 5% CO2. Conventional digestive treatment passage was carried out using pancreatic enzyme—EDTA twice a week.
# Each mouse was subcutaneously inoculated with 0.1 mL ([…]) FaDu cells at the right dorsal position, and when the average tumor volume reaches about 106 mm^3, randomization was used for initiating drug administration.
# The tested compound was prepared as a 5 mg/mL clarified solution with 10% DMSO+50% polyethylene glycol 400+40% water as the solvent. Preparation was conducted every three days.
# (§1) The experimental indicators refers to study whether tumor growth was inhibited, delayed, or cured. Tumor diameter was measured twice a week with a vernier caliper. The calculation formula of the tumor volume was V=0.5a×b^2, and a and b represent the long diameter and short diameter of the tumor, respectively.
# (§2) The antitumor efficacy of the compound was evaluated by TGI (%) or relative tumor proliferation rate T/C (%). TGI (%) reflects the tumor growth inhibition rate. The calculation of TGI (%): TGI (%)=[1−(average tumor volume at the end of administration of a certain treatment group−average tumor volume at the beginning of administration of the treatment group)/(average tumor volume at the end of treatment in solvent control group−average tumor volume at the beginning of treatment in solvent control group)]×control group.
# (§3) Relative tumor proliferation rate T/C (%): the calculation formula was as follows: T/C %=[…] TRTV/CRTV group (TRTV: treatment group RTV: CRTV: negative control group RTV). According to results of tumor measurement. Relative Tumor Volume (RTV) was calculated by the formula RTV=Vt/V0, where V0 was the average tumor volume measured in group administration (i.e., d0), and Vt was the average tumor volume measured in a certain single measurement. TRTV and CRTV collect data on the same day.
# (§4) Statistic analysis includes an average value and a standard error (SEM) of tumor volume at each time point for each group. […] If there was no significant difference in F value, Dunnet (2-sided) method was applied to analysis. All data were analyzed using SPSS 17.0. P<0.05 was considered as having a significant difference.
# [2] = target: T1, PI3K (p110σ/p85α) (Homo sapiens, UniProt O00329); experiment: PI3K (p110σ/p85α) kinase inhibitory activity (HTRF); format: biochemical
# T1 construct: Eurofins Pharma Discovery Service (contract assay)
# T1 sequence (O00329 whole entry): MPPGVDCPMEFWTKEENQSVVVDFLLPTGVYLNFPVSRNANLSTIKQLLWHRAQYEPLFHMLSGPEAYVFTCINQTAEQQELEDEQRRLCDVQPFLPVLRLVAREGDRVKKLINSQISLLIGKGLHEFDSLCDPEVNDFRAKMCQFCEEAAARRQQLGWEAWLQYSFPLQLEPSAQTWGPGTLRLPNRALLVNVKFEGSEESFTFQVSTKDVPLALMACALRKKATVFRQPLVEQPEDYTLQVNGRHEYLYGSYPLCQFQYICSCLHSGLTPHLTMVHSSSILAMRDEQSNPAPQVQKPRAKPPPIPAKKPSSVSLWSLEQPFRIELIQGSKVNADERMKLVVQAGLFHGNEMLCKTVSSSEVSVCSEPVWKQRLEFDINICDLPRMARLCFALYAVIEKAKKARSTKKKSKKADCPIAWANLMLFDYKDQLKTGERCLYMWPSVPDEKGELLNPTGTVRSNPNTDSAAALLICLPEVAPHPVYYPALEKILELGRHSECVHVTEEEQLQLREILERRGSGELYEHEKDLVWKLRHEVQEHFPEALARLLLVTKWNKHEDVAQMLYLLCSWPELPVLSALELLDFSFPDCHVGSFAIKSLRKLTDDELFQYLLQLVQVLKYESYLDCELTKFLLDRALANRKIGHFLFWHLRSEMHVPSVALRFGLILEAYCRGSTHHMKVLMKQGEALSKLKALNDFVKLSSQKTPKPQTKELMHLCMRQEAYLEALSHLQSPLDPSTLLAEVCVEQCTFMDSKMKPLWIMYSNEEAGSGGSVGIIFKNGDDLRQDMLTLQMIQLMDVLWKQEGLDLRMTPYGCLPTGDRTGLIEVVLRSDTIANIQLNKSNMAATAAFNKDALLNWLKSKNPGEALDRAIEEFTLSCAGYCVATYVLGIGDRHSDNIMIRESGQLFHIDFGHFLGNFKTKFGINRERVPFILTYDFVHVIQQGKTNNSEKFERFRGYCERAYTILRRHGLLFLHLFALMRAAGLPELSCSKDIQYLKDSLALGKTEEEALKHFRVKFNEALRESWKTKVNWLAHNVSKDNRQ
# T1 sequence (P27986 whole entry partner): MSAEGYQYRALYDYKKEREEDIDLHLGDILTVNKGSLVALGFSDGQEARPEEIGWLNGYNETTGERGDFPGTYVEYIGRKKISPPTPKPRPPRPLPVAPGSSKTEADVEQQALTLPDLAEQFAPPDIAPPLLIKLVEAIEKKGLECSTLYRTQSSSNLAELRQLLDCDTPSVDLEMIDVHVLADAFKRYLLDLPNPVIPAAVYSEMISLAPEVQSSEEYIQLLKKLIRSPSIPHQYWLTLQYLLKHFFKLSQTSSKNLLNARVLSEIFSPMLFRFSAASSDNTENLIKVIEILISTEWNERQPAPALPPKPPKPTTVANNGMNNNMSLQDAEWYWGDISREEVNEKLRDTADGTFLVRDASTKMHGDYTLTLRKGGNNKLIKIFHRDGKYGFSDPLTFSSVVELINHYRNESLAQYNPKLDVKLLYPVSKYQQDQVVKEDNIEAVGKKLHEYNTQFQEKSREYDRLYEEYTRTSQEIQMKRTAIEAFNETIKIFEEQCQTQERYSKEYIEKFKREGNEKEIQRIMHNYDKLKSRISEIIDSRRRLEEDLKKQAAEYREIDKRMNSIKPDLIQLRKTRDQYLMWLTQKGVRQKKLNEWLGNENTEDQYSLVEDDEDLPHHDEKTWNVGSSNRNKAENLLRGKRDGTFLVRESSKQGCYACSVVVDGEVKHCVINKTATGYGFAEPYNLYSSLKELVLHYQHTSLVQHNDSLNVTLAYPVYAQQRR
# [3] = tested on: human small cell lung cancer NCI-H69 xenograft tumor model; experiment: NCI-H69 xenograft, mono and combination with etoposide, 24-day experiment (Table 8); format: in vivo, BALB/c nude mice; conditions: 40 mg/kg; for Tumor volume (mm^3) (0th day) / Tumor volume (mm^3) (24th day): average ± SEM, n = 9
# Protocol: Experiment example 3: in vivo pharmacodynamics of human small cell lung cancer NCI-H69 cell subcutaneous xenograft tumor BALB/c nude mouse model:
# Experimental animals: Female BALB/c nude mice, 6-8 weeks old, weighing 15-22 grams; supplier: Shanghai Linchang Biotechnology Co., LTD. (Linchang, Shanghai)
# Human small cell lung cancer NCI-H69 cells (ATCC, item number: HTB-119 and ECACC-95111733) were cultured in vitro in a culture condition of RPMI-1640 medium with 10% fetal bovine serum, 100 U/mL penicillin and 100 μg/mL streptomycin, incubated at 37° C. and 5% CO2. Conventional passage was carried out twice a week. When cell saturation was 80%-90% and the number reaches the requirement, cells were collected, counted and inoculated.
# 0.2 mL (10×10^6) NCI-H69 cells (with matrix glue, and volume ratio of 1:1) were subcutaneously inoculated into a right back of each mouse, and group administration was initiated when the average tumor volume reaches about 110-120 mm^3.
# The tested compound was prepared as a 5 mg/mL clarified solution with 10% DMSO+50% polyethylene glycol 400+40% water as the solvent.
# as §1, §2
# as §3, with “group RTV;” for “group RTV:”, “tumor measurement,” for “tumor measurement.”
# as §4
# [4] = 50 mg/kg + 2 Gy, average ± SEM, n = 8
# [5] = 50 mg/kg alone, average ± SEM, n = 8
# [6] = QD, alone, average ± SEM, n = 8
# [7] = PO, QD + etoposide 10 mg/kg, IP
smiles,measurement,setting,value
"COc1ccc([C@@H](O)c2cc(-c3nncc4cc(N5CCOCC5)ccc34)c(F)cc2Cl)nn1 [Embodiment M3814, reference compound]","Tumor volume (mm^3), 3 days after administration",[1]; [4],168 ± 10 mm^3
same,"Tumor volume (mm^3), 7 days after administration",[1]; [4],106 ± 19 mm^3
same,"Tumor volume (mm^3), 10 days after administration",[1]; [4],68 ± 16 mm^3
same,"Tumor volume (mm^3), 14 days after administration",[1]; [4],25 ± 9 mm^3
same,"Tumor volume (mm^3), 17 days after administration",[1]; [4],12 ± 4 mm^3
same,"Tumor volume (mm^3), 23 days after administration",[1]; [4],1 ± 1 mm^3
same,"Tumor volume (mm^3), 28 days after administration","[1]; 50 mg/kg + 2 Gy, day 28, average ± SEM, n = 8",1 ± 1 mm^3
same,"Tumor volume (mm^3), 31 days after administration","[1]; 50 mg/kg + 2 Gy, day 31, average ± SEM, n = 8",0 ± 0 mm^3
same,"Tumor volume (mm^3), 35 days after administration","[1]; 50 mg/kg + 2 Gy, day 35, average ± SEM, n = 8",0 ± 0 mm^3
same,"Tumor volume (mm^3), 42 days after administration","[1]; 50 mg/kg + 2 Gy, day 42, average ± SEM, n = 8",0 ± 0 mm^3
same,"Tumor volume (mm^3), 49 days after administration","[1]; 50 mg/kg + 2 Gy, day 49, average ± SEM, n = 8",0 ± 0 mm^3
same,"Tumor volume (mm^3), 56 days after administration","[1]; 50 mg/kg + 2 Gy, day 56, average ± SEM, n = 8",0 ± 0 mm^3
same,"Tumor volume (mm^3), 63 days after administration","[1]; 50 mg/kg + 2 Gy, day 63, average ± SEM, n = 8",0 ± 0 mm^3
same,"Tumor volume (mm^3), 70 days after administration","[1]; 50 mg/kg + 2 Gy, day 70, average ± SEM, n = 8",0 ± 0 mm^3
same,animal death or euthanasia during the study,"[1]; 50 mg/kg alone, one animal of the group",found dead on day 23 after group administration
same,"Tumor volume (mm^3), 3 days after administration",[1]; [5],167 ± 20 mm^3
same,"Tumor volume (mm^3), 7 days after administration",[1]; [5],322 ± 35 mm^3
same,"Tumor volume (mm^3), 10 days after administration",[1]; [5],502 ± 48 mm^3
same,"Tumor volume (mm^3), 14 days after administration",[1]; [5],752 ± 64 mm^3
same,"Tumor volume (mm^3), 17 days after administration",[1]; [5],997 ± 109 mm^3
same,"Tumor volume (mm^3), 23 days after administration",[1]; [5],1831 ± 254 mm^3
same,RTV (21th day),[1]; QD + radiotherapy 2 Gy,0.03 ± 0.02
same,T/C (%) (21th day),[1]; QD + radiotherapy 2 Gy,0.24%
same,TGI (%) (21th day),[1]; QD + radiotherapy 2 Gy,108.46%
same,Tumor volume (mm^3) (0th day),"[1]; QD + radiotherapy 2 Gy, 5-day radiotherapy, 2-day withdrawal, average ± SEM, n = 8",106 ± 5 mm^3
same,Tumor volume (mm^3) (21th day),"[1]; QD + radiotherapy 2 Gy, average ± SEM, n = 8",3 ± 2 mm^3
same,RTV (21th day),"[1]; QD, alone",12.35 ± 1.10
same,T/C (%) (21th day),"[1]; QD, alone",99.60%
same,TGI (%) (21th day),"[1]; QD, alone",−0.43%
same,Tumor volume (mm^3) (0th day),[1]; [6],106 ± 5 mm^3
same,Tumor volume (mm^3) (21th day),[1]; [6],1320 ± 174 mm^3
same,IC50,[2],14 nM
same,RTV (24th day),[3]; [7],3.47 ± 0.24
same,T/C (%) (24th day),[3]; [7],43.1%
same,TGI (%) (24th day),[3]; [7],66.1%
same,Tumor volume (mm^3) (0th day),"[3]; PO, QD + etoposide 10 mg/kg, IP, 3-day administration, 4-day withdrawal",114 ± 8 mm^3
same,Tumor volume (mm^3) (24th day),[3]; [7],389 ± 28 mm^3
same,RTV (24th day),"[3]; QD, alone",6.77 + 0.45
same,T/C (%) (24th day),"[3]; QD, alone",84.1%
same,TGI (%) (24th day),"[3]; QD, alone",19.8%
same,Tumor volume (mm^3) (0th day),"[3]; QD, alone",114 ± 8 mm^3
same,Tumor volume (mm^3) (24th day),"[3]; QD, alone",764 ± 59 mm^3
